These results are taken from PubChem BioAssay (NCI).

Where “and” joins values, the source holds several entries; their conditions need not be identical. Equal entries are not always repeated.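 Five concentrations, 48 hours, 96-well plates. At the GI50, growth is halved. TGI: total growth inhibition.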

Among the test systems are EKVX NSCLC; A498 renal; SK-MEL-28 melanoma; OVCAR-4 ovarian; RPMI-8226 leukemia; MOLT-4 leukemia; MCF7 breast; SNB-19 CNS; DU-145 prostate; NCI-H522 lung.
Test in all cases: DTP human tumour cell line panel, 48 h

For the molecule `COc1ccc2[nH]cc(C3(c4c[nH]c5ccc(OC)cc45)C(=O)Nc4ccc(Cl)cc43)c2c1`, the GI50 is 2.16 µM in the test on EKVX NSCLC; 4.94 µM with A498 renal; 3.1 µM in the test on SK-MEL-28 melanoma; 3.67 µM in the test with OVCAR-4 ovarian; 6.51 µM in the test on RPMI-8226 leukemia; 4.12 µM with MOLT-4 leukemia. Moreover, the GI50 with MCF7 breast is 3.12 µM; in the test on SNB-19 CNS, 5.14 µM; with DU-145 prostate, 4.73 µM. In addition, the TGI is 11.9 µM in the test on EKVX NSCLC; 18.7 µM with A498 renal; 13.1 µM in the test with SK-MEL-28 melanoma; 30.5 µM with OVCAR-4 ovarian; over 100 µM with RPMI-8226 leukemia; 21.1 µM in the test with MOLT-4 leukemia. For the same molecule, the TGI in the test with MCF7 breast was 42.8 µM; in the test on SNB-19 CNS it was over 100 µM; with DU-145 prostate, 29.2 µM.

In the case of `COC(=O)c1cc2c([nH]c3ccccc32)c(-c2nc3ccccc3cc2CO)n1`, the GI50 was over 100 µM in the test with EKVX NSCLC; 30.4 µM in the test on A498 renal; over 100 µM in the test with SK-MEL-28 melanoma; over 100 µM with OVCAR-4 ovarian; over 100 µM in the test with MOLT-4 leukemia; over 100 µM in the test on MCF7 breast. In addition, the GI50 is 73 µM in the test with NCI-H522 lung, over 100 µM in the test on SNB-19 CNS and over 100 µM in the test with DU-145 prostate. Moreover, the total growth inhibition concentration (TGI) with EKVX NSCLC, with A498 renal, in the test on SK-MEL-28 melanoma, in the test on OVCAR-4 ovarian, in the test with MOLT-4 leukemia and in the test with MCF7 breast was over 100 µM in each case. Further, the TGI with NCI-H522 lung, with SNB-19 CNS and with DU-145 prostate was over 100 µM in each case.

In the case of `CCCCNP1(NCCCC)=NP(NCCCC)(NCCCC)=NP(NCCCC)(NCCCC)=NP(NCCCC)(NCCCC)=N1`, the GI50 was 0.25 µM in the test with EKVX NSCLC; 1.93 µM in the test on A498 renal; 2.64 µM in the test with SK-MEL-28 melanoma; 0.18 µM with OVCAR-4 ovarian; 0.491 µM in the test on MOLT-4 leukemia; 0.356 µM in the test on MCF7 breast. Besides, the figures for the 50% growth inhibitory concentration (GI50) in the test with NCI-H522 lung, with SNB-19 CNS and with DU-145 prostate were 0.287 µM, 1.12 µM and 0.895 µM, respectively. Also, the TGI in the test with EKVX NSCLC was found to be 6.17 µM; in the test with A498 renal, 8.01 µM; with SK-MEL-28 melanoma, 8.68 µM; in the test with OVCAR-4 ovarian it was 18.1 µM; in the test with MOLT-4 leukemia, 3.99 µM; in the test on MCF7 breast, 3.52 µM. Further, the figures for the total growth inhibition concentration (TGI) with NCI-H522 lung, in the test with SNB-19 CNS and with DU-145 prostate were 4.3 µM, 27.9 µM and 15.2 µM, respectively.

Turning to `CC(=O)OCC1OC([S-])C(OC(C)=O)C(OC(C)=O)C1OC(C)=O.[Au+].c1ccc(CN2[CH-]N(Cc3ccccc3)C(c3ccccc3)=C2c2ccccc2)cc1`, the GI50 in the test on EKVX NSCLC is 2.92 µM and 0.523 µM; with SK-MEL-28 melanoma it was 2.33 µM and 0.468 µM; in the test with OVCAR-4 ovarian, 3.54 µM and 0.688 µM; with MOLT-4 leukemia, 3.29 µM and 0.399 µM; in the test with MCF7 breast, 1.65 µM and 0.827 µM; in the test on NCI-H522 lung it was 2.03 µM and 0.551 µM. The GI50 in the test on SNB-19 CNS was 1.7 µM and 0.3 µM; in the test with DU-145 prostate it was 2.86 µM and 0.509 µM. In addition, the TGI was 9.53 µM and 4.27 µM with EKVX NSCLC; 5.76 µM and 2.29 µM in the test with SK-MEL-28 melanoma; 15.3 µM and 5.82 µM with OVCAR-4 ovarian; 5.99 µM and 1.93 µM in the test on RPMI-8226 leukemia; 3.52 µM and 2.04 µM in the test with MCF7 breast; 4.7 µM and 1.56 µM with NCI-H522 lung. The concentration for total growth inhibition (TGI) is 3.18 µM and 1.18 µM in the test on SNB-19 CNS; 8.09 µM and 3.59 µM in the test with DU-145 prostate.

On to `CC1OC(OC2C(O)C(OCCc3ccc(O)c(O)c3)OC(CO)C2OC(=O)/C=C/c2ccc(O)c(O)c2)C(O)C(O)C1O` (configuration not stated), for which the GI50 is 27.6 µM with EKVX NSCLC; 52.7 µM with SK-MEL-28 melanoma; over 100 µM with OVCAR-4 ovarian; 42.4 µM with RPMI-8226 leukemia; 32.9 µM in the test on MCF7 breast; over 100 µM in the test on NCI-H522 lung. The GI50 was over 100 µM in the test on SNB-19 CNS and 13.5 µM in the test with DU-145 prostate. The total growth inhibition concentration (TGI) in the test on EKVX NSCLC, with SK-MEL-28 melanoma, in the test on OVCAR-4 ovarian, in the test with RPMI-8226 leukemia, in the test with MCF7 breast and in the test with NCI-H522 lung was over 100 µM in each case. The concentration for total growth inhibition (TGI) in the test on SNB-19 CNS is over 100 µM; in the test with DU-145 prostate it was 27.4 µM.

For the molecule `Cl.[O-]c1cccc2cccnc12.[O-]c1cccc2cccnc12.[O-]c1cccc2cccnc12.[O-]c1cccc2cccnc12.[Ti+4]`, the GI50 in the test on EKVX NSCLC was 0.916 µM; with A498 renal it was 8.24 µM; with SK-MEL-28 melanoma, 4.33 µM; in the test on OVCAR-4 ovarian it was 0.959 µM; with MCF7 breast, 0.955 µM; with NCI-H522 lung, 0.12 µM. For the same molecule, the GI50 in the test with SNB-19 CNS was 70.8 µM; with DU-145 prostate it was 10.5 µM. For the same molecule, the total growth inhibition concentration (TGI) is over 27.4 µM in the test on EKVX NSCLC; 21.7 µM with A498 renal; over 35.4 µM in the test with SK-MEL-28 melanoma; 2.67 µM in the test on RPMI-8226 leukemia; over 100 µM with MCF7 breast; 0.256 µM with NCI-H522 lung. For the same molecule, the TGI in the test with SNB-19 CNS and in the test with DU-145 prostate was over 100 µM throughout.

In the case of `COc1ccccc1/C=C1\CCC(CN2CCOCC2)C1=O` (configuration not stated), the TGI in the test with EKVX NSCLC is 30.6 µM; in the test on A498 renal, 32.4 µM; with SK-MEL-28 melanoma it was 29.6 µM; with OVCAR-4 ovarian, 35.6 µM; in the test on MOLT-4 leukemia it was 14.2 µM; in the test on MCF7 breast, 21.8 µM. In addition, the TGI in the test with NCI-H522 lung is 3.8 µM; in the test on SNB-19 CNS it was 22.6 µM; in the test on DU-145 prostate, 31.4 µM.

As to `Oc1ccccc1/C=N\Nc1ccccc1`, the GI50 was 12.9 µM with EKVX NSCLC; 5.33 µM in the test on SK-MEL-28 melanoma; 24.8 µM in the test with OVCAR-4 ovarian; 3.99 µM with RPMI-8226 leukemia; 0.974 µM in the test on MOLT-4 leukemia; 4.06 µM with MCF7 breast. The results for the GI50 with NCI-H522 lung, in the test on SNB-19 CNS and in the test on DU-145 prostate were 1.73 µM, 13.7 µM and 15.8 µM, respectively. Moreover, the TGI with EKVX NSCLC is over 100 µM; in the test on SK-MEL-28 melanoma, over 100 µM; in the test with OVCAR-4 ovarian, over 100 µM; in the test with RPMI-8226 leukemia, 56.8 µM; with MOLT-4 leukemia, 55.6 µM; in the test on MCF7 breast it was over 100 µM. Besides, the values for the TGI in the test on NCI-H522 lung, in the test on SNB-19 CNS and in the test on DU-145 prostate were 82.9 µM, 95 µM and over 100 µM, respectively.

Consider `Cn1c2ccccc2c2c(=O)n(CCCC(=O)NCCc3cnc[nH]3)c3c(-c4ccccc4)nnn3c21`, for which the GI50 with EKVX NSCLC was 10 µM; with A498 renal, 7.58 µM; with SK-MEL-28 melanoma it was 8.86 µM; with OVCAR-4 ovarian, 10.1 µM; in the test with RPMI-8226 leukemia it was 10.5 µM; in the test on MOLT-4 leukemia, 3.95 µM. For the same molecule, the GI50 is 13 µM in the test with MCF7 breast, 11.8 µM with SNB-19 CNS and 6.88 µM in the test on DU-145 prostate. Besides, the TGI with EKVX NSCLC came to 23.9 µM; in the test with A498 renal, 15.2 µM; in the test with SK-MEL-28 melanoma, 16.9 µM; in the test with OVCAR-4 ovarian, 20.5 µM; in the test on RPMI-8226 leukemia, 28.6 µM; in the test with MOLT-4 leukemia, 21.5 µM. In addition, the TGI in the test with MCF7 breast turned out to be 30.3 µM; in the test on SNB-19 CNS it was 24.1 µM; with DU-145 prostate it was 13.8 µM.
